From patent publication US10323037B2, “Aminopyridazinone compounds as protein kinase inhibitors” (Jiangsu Hengrui Medicine Co., Ltd., priority 2014, dated 2019)

System: TMD-8 cells
Assay: Cell proliferation assay (CellTiter-Glo), TMD-8
Format: cell-based
Conditions: 5-day treatment; read-out: TMD8 cells growth IC50
Procedure: Cell proliferation assay: TMD-8 and SU-DHL-1 cells were maintained at 37° C. in a humidified atmosphere with 5% CO2 in the recommended medium and serum concentrations. For cell proliferation assay, cells were seeded in 96-well pates at a density of 5,000 to 10,000 cells per well and cultured overnight at 37° C. in recommended medium supplemented with 5-10% FBS. On the next day, the test articles at various concentrations or vehicle control (0.5% DMSO) were added into cell culture. After 5-day treatment, the growth of cells was assayed by the CellTiter-Glo® Luminestceaent Cell Viability Assay (Promega). IC50 values were calculated using GraphPad Prism by plotting the logarithm of the concentration versus percent inhibition of cell growth as compared with the vehicle control.

With `CN(C)C/C=C/C(=O)NC1CCC(n2cc(-c3ccc(Oc4ccccc4)cc3)c3c(N)n[nH]c(=O)c32)CC1` (centres unmarked) [Example 46, (E)-N-[4-[4-amino-7-oxo-3-(4-phenoxyphenyl)-6H-pyrrolo[2,3 d]pyridazin-1-yl]cyclohexyl]-4-(dimethylamino)but-2-enamide] the IC50 was 10 to 1000 nM.

Same assay, conditions: Homo sapiens, TMD8, 120 h; 5-day treatment; read-out: TMD8 cells growth IC50

`C=CC(=O)N1CCCC(n2cc(-c3ccc(Oc4cccc(Cl)c4)c(OC)c3)c3c(N)n[nH]c(=O)c32)C1` (centres unmarked) [Example 68, 1-(1-acryloylpiperidin-3-yl)-4-amino-3-(4-(3-chlorophenoxy)-3-methoxyphenyl)-1H-pyrrolo[2,3-d]pyridazin-7(6H)-one] and `COc1cc(-c2cn([C@@H]3CCCN(C(=O)/C=C/CN(C)C)C3)c3c(=O)[nH]nc(N)c23)ccc1Oc1ccc(Cl)c(Cl)c1` [Example 73, 4-amino-3-[4-(3,4-dichlorophenoxy)-3-methoxy-phenyl]-1-[(3R)-1-[(E)-4-(dimethylamino)but-2-enoyl]-3-piperidyl]-6H-pyrrolo[2,3-d]pyridazin-7-one] cannot be ordered by IC50: at most 10 nM for the first, 10 to 1000 nM for the second.

`C=CC(=O)N1CCCC(n2cc(-c3ccc(Oc4cccc(F)c4)cc3)c3c(N)n[nH]c(=O)c32)C1` (centres unmarked) [Example 62, 1-(1-acryloylpiperidin-3-yl)-4-amino-3-(4-(3-fluorophenoxy)phenyl)-1H-pyrrolo[2,3-d]pyridazin-7(6H)-one] and `C=CC(=O)N1CCCC(n2cc(-c3ccc(Oc4ccc(F)cc4)cc3)c3c(N)n[nH]c(=O)c32)C1` (centres unmarked) [Example 60, 1-(1-acryloylpiperidin-3-yl)-4-amino-3-(4-(4-fluorophenoxy)phenyl)-1H-pyrrolo[2,3-d]pyridazin-7(6H)-one] cannot be ordered by IC50: at most 10 nM for the first, 10 to 1000 nM for the second.

`CN(C)C/C=C/C(=O)N1CCCC(n2cc(-c3ccc(Oc4cccc(F)c4)cc3)c3c(N)n[nH]c(=O)c32)C1` (centres unmarked) [Example 63, 4-amino-1-[1-[(E)-4-(dimethylamino)but-2-enoyl]-3-piperidyl]-3-[4-(3-fluorophenoxy)phenyl]-6H-pyrrolo[2,3-d]pyridazin-7-one] and `CN(C)C/C=C/C(=O)N1CCC[C@@H](n2cc(-c3ccc(Oc4c(F)cccc4Cl)cc3)c3c(N)n[nH]c(=O)c32)C1` [Example 79, 4-amino-3-[4-(2-chloro-6-fluoro-phenoxy)phenyl]-1-[(3R)-1-[(E)-4-(dimethylamino)but-2-enoyl]-3-piperidyl]-6H-pyrrolo[2,3-d]pyridazin-7-one] cannot be ordered by IC50: at most 10 nM for the first, at most 10 nM for the second.

`N#CN1CCC[C@@H](n2cc(-c3ccc(Oc4ccccc4)c(F)c3)c3c(N)n[nH]c(=O)c32)C1` [Example 85, (R)-3-(4-amino-3-(3-fluoro-4-phenoxyphenyl)-7-oxo-6,7-dihydro-1H-pyrrolo[2,3-d]pyridazin-1-yl)piperidine-1-carbonitrile] and `N#CN1CCC[C@@H](n2cc(-c3ccc(Oc4ccccc4F)cc3)c3c(N)n[nH]c(=O)c32)C1` [Example 87, (R)-3-(4-amino-3-(4-(2-fluorophenoxy)phenyl)-7-oxo-6,7-dihydro-1H-pyrrolo[2,3-d]pyridazin-1-yl)piperidine-1-carbonitrile] cannot be ordered by IC50: at most 10 nM for the first, at most 10 nM for the second.

`C=CC(=O)N1CC(Cn2cc(-c3ccc(Oc4ccccc4)cc3)c3c(N)n[nH]c(=O)c32)C1` [Example 12, 4-amino-3-(4-phenoxyphenyl)-1-[(1-prop-2-enoylazetidin-3-yl)methyl]-6H-pyrrolo[2,3-d]pyridazin-7-one] and `C=CC(=O)N1CCC(Cn2cc(-c3ccc(Oc4ccccc4)cc3)c3c(N)n[nH]c(=O)c32)CC1` [Example 10, 4-amino-3-(4-phenoxyphenyl)-1-[(1-prop-2-enoyl-4-piperidyl)methyl]-6H-pyrrolo[2,3-d]pyridazin-7-one] cannot be ordered by IC50: at most 10 nM for the first, 10 to 1000 nM for the second.

`CCC(=O)N1CCCC(n2cc(-c3ccc(Oc4ccccc4)cc3)c3c(N)n[nH]c(=O)c32)C1` (centres unmarked) [Example 19, 4-amino-3-(4-phenoxyphenyl)-1-(1-propionylpiperidin-3-yl)-1H-pyrrolo[2,3-d]pyridazin-7(6H)-one] and `C/C=C/C(=O)N1CCC[C@@H](n2cc(-c3ccc(Oc4ccccc4)cc3)c3c(N)n[nH]c(=O)c32)C1` [Example 25, 4-amino-1-[(3R)-1-[(E)-but-2-enoyl]-3-piperidyl]-3-(4-phenoxyphenyl)-6H-pyrrolo[2,3-d]pyridazin-7-one] fall in the same range of IC50: 10 to 1000 nM for the first, 10 to 1000 nM for the second.

First: COc1ccc(-c2cn(C3CCCN(C(=O)/C=C/CN(C)C)C3)c3c(=O)[nH]nc(N)c23)cc1 (centres unmarked) [Example 52, 4-amino-1-[1-[(E)-4-(dimethylamino)but-2-enoyl]-3-piperidyl]-3-(4-methoxyphenyl)-6H-pyrrolo[2,3-d]pyridazin-7-one]
Second: CN(C)C/C=C/C(=O)N1CCC[C@@H](n2cc(-c3ccc(Oc4c(F)cccc4F)cc3)c3c(N)n[nH]c(=O)c32)C1 [Example 59, 4-amino-3-[4-(2,6-difluorophenoxy)phenyl]-1-[(3R)-1-[(E)-4-(dimethylamino)but-2-enoyl]-3-piperidyl]-6H-pyrrolo[2,3-d]pyridazin-7-one]
The IC50 of the first is higher: 1000 to 100000 nM for the first, at most 10 nM for the second. The second is the more potent here.

`C=CC(=O)Nc1cccc(-n2cc(-c3ccc(Oc4ccccc4)cc3)c3c(N)n[nH]c(=O)c32)c1` [Example 88, N-(3-(4-amino-7-oxo-3-(4-phenoxyphenyl)-6,7-dihydro-1H-pyrrolo[2,3-d]pyridazin-1-yl)phenyl)acrylamide] and `CN(C)C/C=C/C(=O)Nc1cccc(-n2cc(-c3ccc(Oc4ccccc4F)cc3)c3c(N)n[nH]c(=O)c32)c1` [Example 92, (E)-N-[3-[4-amino-3-[4-(2-fluorophenoxy)phenyl]-7-oxo-6H-pyrrolo[2,3-d]pyridazin-1-yl]phenyl]-4-(dimethylamino)but-2-enamide] cannot be ordered by IC50: at most 10 nM for the first, at most 10 nM for the second.

`Nc1n[nH]c(=O)c2c1c(-c1ccc(Oc3ccccc3)cc1)cn2[C@@H]1CCCN(C(=O)/C=C/CN2CCCC2)C1` [Example 34, 4-amino-3-(4-phenoxyphenyl)-1-[(3R)-1-[(E)-4-pyrrolidin-1-ylbut-2-enoyl]-3-piperidyl]-6H-pyrrolo[2,3-d]pyridazin-7-one] and `CNC/C=C/C(=O)N1CCC[C@@H](n2cc(-c3ccc(Oc4ccccc4)cc3)c3c(N)n[nH]c(=O)c32)C1` [Example 18, 4-amino-1-[(3R)-1-[(E)-4-(methylamino)but-2-enoyl]-3-piperidyl]-3-(4-phenoxyphenyl)-6H-pyrrolo[2,3-d]pyridazin-7-one] cannot be ordered by IC50: at most 10 nM for the first, at most 10 nM for the second.

`C=CC(=O)N1CCC[C@@H](n2cc(-c3ccc(Oc4ccccc4F)cc3)c3c(N)n[nH]c(=O)c32)C1` [Example 56, (R)-1-(1-acryloylpiperidin-3-yl)-4-amino-3-(4-(2-fluorophenoxy)phenyl)-1H-pyrrolo[2,3-d]pyridazin-7(6H)-one] and `C=CC(=O)N1CCC[C@@H](n2cc(-c3ccc(Oc4ccccc4Cl)cc3)c3c(N)n[nH]c(=O)c32)C1` [Example 70, (R)-1-(1-acryloylpiperidin-3-yl)-4-amino-3-(4-(2-chlorophenoxy)phenyl)-1H-pyrrolo[2,3-d]pyridazin-7(6H)-one] cannot be ordered by IC50: at most 10 nM for the first, at most 10 nM for the second.

`Nc1n[nH]c(=O)c2c1c(-c1ccc(Oc3ccccc3)cc1)cn2[C@@H]1CCCN(C(=O)/C=C/CNC2CC2)C1` [Example 28, 4-amino-1-[(3R)-1-[(E)-4-(cyclopropylamino)but-2-enoyl]-3-piperidyl]-3-(4-phenoxyphenyl)-6H-pyrrolo[2,3-d]pyridazin-7-one] and `CCN(C/C=C/C(=O)N1CCC[C@@H](n2cc(-c3ccc(Oc4ccccc4)cc3)c3c(N)n[nH]c(=O)c32)C1)C1CC1` [Example 30, 4-amino-1-[(3R)-1-[(E)-4-[cyclopropyl(ethyl)amino]but-2-enoyl]-3-piperidyl]-3-(4-phenoxyphenyl)-6H-pyrrolo[2,3-d]pyridazin-7-one] cannot be ordered by IC50: at most 10 nM for the first, 10 to 1000 nM for the second.

`CC#CC(=O)N1CCC[C@@H](n2cc(-c3ccc(Oc4c(F)cccc4F)cc3)c3c(N)n[nH]c(=O)c32)C1` [Example 117, (R)-4-amino-1-(1-(but-2-ynoyl)piperidin-3-yl)-3-(4-(2,6-difluorophenoxy)phenyl)-1H-pyrrolo[2,3-d]pyridazin-7(6H)-one] and `CC#CC(=O)N1CC[C@@H](n2cc(-c3ccc(Oc4c(F)cccc4F)cc3)c3c(N)n[nH]c(=O)c32)C1` [Example 93, (R)-4-amino-1-(1-(but-2-ynoyl)pyrrolidin-3-yl)-3-(4-(2,6-difluorophenoxy)phenyl)-1H-pyrrolo[2,3-d]pyridazin-7(6H)-one] cannot be ordered by IC50: 10 to 1000 nM for the first, at most 10 nM for the second.

`CN(C)C/C=C/C(=O)N1CC[C@@H](n2cc(-c3ccc(Oc4ccccc4)cc3)c3c(N)n[nH]c(=O)c32)C1` [Example 39, 4-amino-1-[(3R)-1-[(E)-4-(dimethylamino)but-2-enoyl]pyrrolidin-3-yl]-3-(4-phenoxyphenyl)-6H-pyrrolo[2,3-d]pyridazin-7-one] and `CN(C)C/C=C/C(=O)N1CCC[C@@H](n2cc(-c3ccc(Oc4ccccc4)c(F)c3)c3c(N)n[nH]c(=O)c32)C1` [Example 75, 4-amino-1-[(3R)-1-[(E)-4-(dimethylamino)but-2-enoyl]-3-piperidyl]-3-(3-fluoro-4-phenoxy-phenyl)-6H-pyrrolo[2,3-d]pyridazin-7-one] cannot be ordered by IC50: at most 10 nM for the first, 10 to 1000 nM for the second.

`CC#CC(=O)N1CC[C@@H](n2cc(-c3ccc(Oc4ccccc4Cl)cc3)c3c(N)n[nH]c(=O)c32)C1` [Example 96, (R)-4-amino-1-(1-(but-2-ynoyl)pyrrolidin-3-yl)-3-(4-(2-chlorophenoxy)phenyl)-1H-pyrrolo[2,3-d]pyridazin-7(6H)-one] and `C/C=C/C(=O)N1CCC[C@@H](n2cc(-c3ccc(Oc4c(F)cccc4F)cc3)c3c(N)n[nH]c(=O)c32)C1` [Example 116, 4-amino-3-[4-(2,6-difluorophenoxy)phenyl]-1-[(3R)-1-[(E)-but-2-enoyl]-3-piperidyl]-6H-pyrrolo[2,3-d]pyridazin-7-one] fall in the same range of IC50: 10 to 1000 nM for the first, 10 to 1000 nM for the second.
